The assay deals with Melanoderm cultures. As to the kind of experiment: Solvable Melanin Assay on Melanoderm cultures (3-D skin model). The format is cell-based. The settings on record: Melanoderm cultures fed every other day for 2 weeks, controls DMSO 1.292, untreated 1.259. The protocol: This experiment was carried out using Melanoderm cultures. Luminescence was measured using a chromameter to assay the degree of melanization of a 3-D skin model.
Method for Melanoderm Cultures
Melanoderm cultures were obtained from MatTek Corporation, Ashland, Mass. The Melanoderm was maintained according to the manufacturer's instructions. The basal media used for the maintenance of the Melanoderm cultures was DMEM supplemented with unspecified quantities of Epidermal growth factor, Insulin, Hydrocortisone, and proprietary epidermal differentiation compounds, in addition to anti-fungal and antibiotics.
For the long term maintenance of the Melanoderms, the basal media was supplemented with both bFGF and a-MSH, compounds which are stimulators of melanocyte growth and melanogenesis. The cultures were fed every other day for a total of 2 weeks—fresh active preparations, prepared in DMSO or culture media, were also applied to the Melanoderms when feeding was performed. Each treatment condition was done in duplicate and digital photographs were taken of the Melanoderm cultures to assess overall pigmentation. As well, microscopic images of the Melanoderms were done to assess the cell viability of the keratinocytes and melanocytes. For further evidence that the treatments were/not cytotoxic, an LDH assay (Promega, Madison, Wis.) was performed on the supernatants from 24 hour post-treatment cultures.
To prepare tissues for assay:
After treatment, tissues are usually frozen until completion of the experiment. Thaw tissues, a few at a time and place in D-PBS to remove excess phenol red from the culture medium and residual test article. Remove a single tissue from the insert. Blot dry and place in 1.7 ml. microfuge tube. Repeat for all samples. Add 250 ul Solvable™ (Tissue and Gel Solubilizer 0.5 M—Packard BioScience Co. Catalogue No. 6NE9100 (NEF910)). Close the tube and make sure that the tissue is completely submerged. Incubate at 60° C. overnight along with standards. In the morning, vortex the samples. Sometimes thick tissues will require additional time to complete the solution process. To prepare standard: Dissolve Melanin (Sigma cat. M 8631) in Solvable at 1 mg/ml. The solution may be warmed gently for 15 minutes at 37° C. Store solution in dark. To prepare standard curve: Prepare dilutions from the standard containing 0 ug to 250 ug of melanin in a total of 250 ul Solvable. Incubate dilutions along with samples. To read assay: Cool samples and standards. Centrifuge at 13,000 rpm for 5 minutes to pellet. Fill microwell plate (C-96) with 200 ul each of samples and standards. There is some foaming of samples when pipetted. Blow gently across the samples to break bubbles prior to reading the plate. Read plate at […].

For `O=c1oc2cc(O)ccc2cc1-c1ccccc1` [7-hydroxy-3-phenylcoumarin], the “OD = 490 nm (melanin content)” value came to 1.674 (25 uM), 1.339 (50 uM), 0.849 (75 uM) and 0.293 (100 uM).

These data come from patent US7247294B1, “Skin lightening agents, compositions and methods” (Conopco, Inc., priority 2006, dated 2007).
